Where two headings read alike, the source gives them in different places.
Conditions: amide bond

`CC(C)C[C@@H]1NC(=O)[C@@H](c2cccs2)NC(=O)[C@H](CC(=O)O)NC(=O)[C@H](Cc2c[nH]c3ccccc23)NC(=O)[C@@H](CC(=O)O)NC(=O)[C@@H](Cc2c[nH]c3ccccc23)NC1=O` [cyclo[-D-Asp-Trp-Asp-D-Thg(2)-Leu-D-Trp-]] showed a ring closure, yield of all isomers (from CC(C)C[C@H](NC(=O)[C@H](NC(=O)OC(C)(C)C)c1cccs1)C(=O)N[C@H](Cc1c[nH]c2ccccc12)C(=O)N[C@H](CC(=O)OCc1ccccc1)C(=O)N[C@@H](Cc1c[nH]c2ccccc12)C(=O)N[C@@H](CC(=O)OCc1ccccc1)C(=O)O, HONB/DCC (active ester), TEA, DMF, 5.06 mM, 4 steps) of 4.6%.
In the case of `CC(C)C[C@@H]1NC(=O)[C@@H](CC(C)C)NC(=O)[C@H](CC(=O)O)NC(=O)[C@H](CC(=O)NCc2ccccc2)NC(=O)[C@@H](CC(=O)O)NC(=O)[C@@H](Cc2c[nH]c3ccccc23)NC1=O` [cyclo[-D-Asp-Asn(CH2 Ph)-Asp-D-Leu-Leu-D-Trp-]], the ring closure, yield of all isomers (from CC(C)C[C@H](NC(=O)[C@@H](CC(C)C)NC(=O)[C@H](CC(=O)OCc1ccccc1)NC(=O)[C@H](CC(=O)NCc1ccccc1)NC(=O)[C@@H](CC(=O)OCc1ccccc1)NC(=O)[C@@H](Cc1c[nH]c2ccccc12)NC(=O)OC(C)(C)C)C(=O)O, HONB/DCC (ONB active ester), TEA, DMF, 3.46 mM, 16.0 h, 4 steps) is reported as 23.8%.
`CC(C)C[C@@H]1NC(=O)C2(CCC2)NC(=O)[C@H](CC(=O)O)NC(=O)[C@H](Cc2c[nH]c3ccccc23)NC(=O)[C@@H](CC(=O)O)NC(=O)[C@@H](Cc2c[nH]c3ccccc23)NC1=O` [cyclo[-D-Asp-Trp-Asp-Acbu-Leu-D-Trp-]] showed a ring closure, yield of all isomers (from CC(C)C[C@H](NC(=O)C1(NC(=O)OC(C)(C)C)CCC1)C(=O)N[C@H](Cc1c[nH]c2ccccc12)C(=O)N[C@H](CC(=O)OCc1ccccc1)C(=O)N[C@@H](Cc1c[nH]c2ccccc12)C(=O)N[C@@H](CC(=O)OCc1ccccc1)C(=O)O, HONB/DCC (active ester), TEA, DMF, 4.95 mM, 4 steps) of 10.4%.
With `CC(C)C[C@@H]1NC(=O)[C@@H](c2cccs2)NC(=O)[C@H](CC(=O)O)NC(=O)[C@H](CC(=O)NCCc2c[nH]c3ccccc23)NC(=O)[C@@H](CC(=O)O)NC(=O)[C@@H](Cc2c[nH]c3ccccc23)NC1=O` [cyclo[-D-Asp-Asn(CH2 CH2 -Ind)-Asp-D-Thg(2)-Leu-D-Trp-]] the ring closure, yield of all isomers (from CC(C)C[C@H](NC(=O)[C@H](NC(=O)OC(C)(C)C)c1cccs1)C(=O)N[C@H](Cc1c[nH]c2ccccc12)C(=O)N[C@H](CC(=O)OCc1ccccc1)C(=O)N[C@@H](CC(=O)NCCc1c[nH]c2ccccc12)C(=O)N[C@@H](CC(=O)OCc1ccccc1)C(=O)O, 4 steps) was 9.5%.
Work on `CC(C)C[C@@H]1NC(=O)[C@@H](CC(C)C)NC(=O)[C@H](CC(=O)O)NC(=O)[C@H](CC(=O)NCCc2ccccc2)NC(=O)[C@@H](CC(=O)O)NC(=O)[C@@H](Cc2c[nH]c3ccccc23)NC1=O` [cyclo[-D-Asp-Asn(CH2 CH2 Ph)-Asp-D-Leu-Leu-D-Trp-]] yielded a ring closure, yield of all isomers (from CC(C)C[C@H](NC(=O)[C@@H](CC(C)C)NC(=O)[C@H](CC(=O)OCc1ccccc1)NC(=O)[C@H](CC(=O)NCCc1ccccc1)NC(=O)[C@@H](CC(=O)OCc1ccccc1)NC(=O)[C@@H](Cc1c[nH]c2ccccc12)NC(=O)OC(C)(C)C)C(=O)O, HONB/DCC (ONB active ester), then TEA, DMF, 3.46 mM, 16.0 h, 4 steps) of 24.1%.
`CC(C)C[C@@H]1NC(=O)[C@@H](CC(C)C)NC(=O)[C@H](CC(=O)OCc2ccccc2)NC(=O)[C@@H]2C[C@@H](OCc3ccccc3)CN2C(=O)[C@@H](CC(=O)OCc2ccccc2)NC(=O)[C@@H](Cc2c[nH]c3ccccc23)NC1=O` [cyclo[-D-Asp(OBzl)-Hyp(Bzl)-Asp(OBzl)-D-Leu-Leu-D-Trp-]] gave a ring closure, yield of all isomers (from CC(C)C[C@H](NC(=O)[C@@H](CC(C)C)NC(=O)[C@H](CC(=O)OCc1ccccc1)NC(=O)[C@@H]1C[C@@H](OCc2ccccc2)CN1C(=O)[C@@H](CC(=O)OCc1ccccc1)NC(=O)[C@@H](Cc1c[nH]c2ccccc12)NC(=O)OC(C)(C)C)C(=O)O, HONB/DCC (active ester), then TEA, DMF, 9.5 mM, 16.0 h, 3 steps) of 82.6%.
Molecule `CC(C)C[C@@H]1NC(=O)[C@@H](CC(C)C)NC(=O)[C@H](CC(=O)O)NC(=O)[C@H](CCCNC(=O)Cc2ccccc2)NC(=O)[C@@H](CC(=O)O)NC(=O)[C@@H](Cc2c[nH]c3ccccc23)NC1=O` [cyclo[-D-Asp-Orn(COCH2 Ph)-Asp-D-Leu-Leu-D-Trp-]] has a ring closure, yield of all isomers (from CC(C)C[C@H](NC(=O)[C@@H](CC(C)C)NC(=O)[C@H](CC(=O)OCc1ccccc1)NC(=O)[C@H](CCCNC(=O)Cc1ccccc1)NC(=O)OC(C)(C)C)C(=O)N[C@H](Cc1c[nH]c2ccccc12)C(=O)N[C@H](CC(=O)OCc1ccccc1)C(=O)O, HONB/DCC (active ester), TEA, DMF, 4.66 mM, 4 steps) of 2.9%.
Work on `CC(C)C[C@@H]1NC(=O)[C@@H](CC(C)C)NC(=O)[C@@H](CC(=O)O)NC(=O)[C@H](C)NC(=O)[C@@H](CC(=O)O)NC(=O)[C@@H](Cc2c[nH]c3ccccc23)NC1=O` [cyclo[-D-Asp-Ala-D-Asp-D-Leu-Leu-D-Trp-]] yielded a ring closure, yield of all isomers (from CC(C)C[C@H](NC(=O)[C@@H](CC(C)C)NC(=O)[C@@H](CC(=O)OCc1ccccc1)NC(=O)[C@H](C)NC(=O)[C@@H](CC(=O)OCc1ccccc1)NC(=O)[C@@H](Cc1c[nH]c2ccccc12)NC(=O)OC(C)(C)C)C(=O)O, HONB/DCC (active ester), TEA, DMF, 5.0 mM, 4 steps) of 15.3%.
For `CC(C)C[C@@H]1NC(=O)[C@@H](CC(C)C)NC(=O)[C@H](C)NC(=O)[C@H](CCC(=O)O)NC(=O)[C@@H](CC(=O)O)NC(=O)[C@@H](Cc2c[nH]c3ccccc23)NC1=O` [cyclo[-D-Asp-Glu-Ala-D-Leu-Leu-D-Trp-]], the ring closure, yield of all isomers (from CC(C)C[C@H](NC(=O)[C@@H](CC(C)C)NC(=O)[C@H](C)NC(=O)[C@H](CCC(=O)OCc1ccccc1)NC(=O)[C@@H](CC(=O)OCc1ccccc1)NC(=O)[C@@H](Cc1c[nH]c2ccccc12)NC(=O)OC(C)(C)C)C(=O)O, HONB/DCC (active ester), TEA, DMF, 4.97 mM, 16.0 h, 4 steps) was 20.6%.
`CC(C)C[C@@H]1NC(=O)[C@@H](CC(C)C)NC(=O)[C@H](CC(=O)O)NC(=O)[C@H](CCCNC(=O)c2ccccc2)NC(=O)[C@@H](CC(=O)O)NC(=O)[C@@H](Cc2c[nH]c3ccccc23)NC1=O` [cyclo[-D-Asp-Orn(COPh)-Asp-D-Leu-Leu-D-Trp-]] showed a ring closure, yield of all isomers (from CC(C)C[C@H](NC(=O)[C@@H](CC(C)C)NC(=O)[C@H](CC(=O)OCc1ccccc1)NC(=O)[C@H](CCCNC(=O)c1ccccc1)NC(=O)OC(C)(C)C)C(=O)N[C@H](Cc1c[nH]c2ccccc12)C(=O)N[C@H](CC(=O)OCc1ccccc1)C(=O)O, HONB/DCC (active ester), TEA, DMF, 5.03 mM, 4 steps) of 48.1%.
`CC(C)C[C@@H]1NC(=O)[C@@H](CC(C)C)NC(=O)[C@H](CC(=O)O)NC(=O)[C@H](C)NC(=O)[C@@H](CC(=O)O)NC(=O)[C@@H](Cc2c[nH]c3ccccc23)NC1=O` [cyclo[-D-Asp-Ala-Asp-D-Leu-Leu-D-Trp-]] showed a ring closure, yield of all isomers (from CC(C)C[C@H](NC(=O)[C@@H](CC(C)C)NC(=O)[C@H](CC(=O)OCc1ccccc1)NC(=O)[C@H](C)NC(=O)[C@@H](CC(=O)OCc1ccccc1)NC(=O)[C@@H](Cc1c[nH]c2ccccc12)NC(=O)OC(C)(C)C)C(=O)O, HONB/DCC (active ester), TEA, DMF, 5.0 mM, 4 steps) of 18.2%.
Molecule `CC(C)C[C@@H]1NC(=O)[C@@H](CC(C)(C)C)NC(=O)[C@H](CC(=O)O)NC(=O)[C@H](Cc2c[nH]c3ccccc23)NC(=O)[C@@H](CC(=O)O)NC(=O)[C@@H](Cc2c[nH]c3ccccc23)NC1=O` [cyclo[-D-Asp-Trp-Asp-D-γMeLeu-Leu-D-Trp-]] has a ring closure, yield of all isomers (from CC(C)C[C@H](NC(=O)[C@@H](CC(C)(C)C)NC(=O)OC(C)(C)C)C(=O)N[C@H](Cc1c[nH]c2ccccc12)C(=O)N[C@H](CC(=O)OCc1ccccc1)C(=O)N[C@@H](Cc1c[nH]c2ccccc12)C(=O)N[C@@H](CC(=O)OCc1ccccc1)C(=O)O, HONB/DCC (active ester), then TEA, DMF, 4.97 mM, 16.0 h, 4 steps) of 51.5%.

Source: patent US5616684A, “Cyclic peptides and use thereof” (priority 1991, dated 1997)
